Laboratory results as given in patent US11549123B2, “Plant EPSP synthases and methods of use” (PIONEER HI-BRED INTERNATIONAL, INC., priority 2015, dated 2023).
Where a chain is given by its changes, count along the chain named.

Key:
Format in all cases: biochemical
[1] = biological target: Zea mays EPSPS variant 311S (Zea mays, UniProt O24566, P310S); experiment: EPSPS reaction rate with or without 10 uM glyphosate, 311S; conditions: pH 7; read-out: Reaction rate with 10 μM glyph, % no glyph; note: 50 µM PEP and S3P
Zea mays EPSPS variant 311S, sequence (O24566 entry or part of it P310S): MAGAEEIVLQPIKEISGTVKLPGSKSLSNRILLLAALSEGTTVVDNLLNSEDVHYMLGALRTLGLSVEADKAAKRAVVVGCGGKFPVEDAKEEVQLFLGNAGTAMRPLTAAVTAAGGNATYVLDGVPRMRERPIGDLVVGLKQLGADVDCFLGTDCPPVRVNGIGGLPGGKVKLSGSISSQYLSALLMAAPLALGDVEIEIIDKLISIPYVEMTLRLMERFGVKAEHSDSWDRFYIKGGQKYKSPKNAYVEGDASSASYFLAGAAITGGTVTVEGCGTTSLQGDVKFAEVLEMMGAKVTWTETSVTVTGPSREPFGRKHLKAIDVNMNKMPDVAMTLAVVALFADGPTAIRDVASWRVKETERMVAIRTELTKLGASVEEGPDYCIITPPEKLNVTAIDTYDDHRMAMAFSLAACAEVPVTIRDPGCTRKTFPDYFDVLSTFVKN

[2] = biological target: T1, Zea mays EPSPS variant Zm-H6 (868-H6) with R61Y (H6-R61Y) (Zea mays, UniProt O24566, A1R/A3W/A415G/A71Q/D401G/E301S/E390G/G101A/I207L/K83R/L97C/R60Y/T278A/T360S/T440Q/V437R); experiment: Rapid two-rate method for (kcat/KM)*KI, H6-R61Y; conditions: [E] 0.07 uM, [Gly] 1000 uM
T1 construct: 868-H6 plus R61Y; E. coli BL21(DE3), Ni-NTA purified
T1 sequence (O24566 with tags, fused parts or gaps A1R/A3W/R60Y/A71Q/K83R/L97C/G101A/I207L/T278A/E301S/T360S/E390G/D401G/A415G/V437R/T440Q): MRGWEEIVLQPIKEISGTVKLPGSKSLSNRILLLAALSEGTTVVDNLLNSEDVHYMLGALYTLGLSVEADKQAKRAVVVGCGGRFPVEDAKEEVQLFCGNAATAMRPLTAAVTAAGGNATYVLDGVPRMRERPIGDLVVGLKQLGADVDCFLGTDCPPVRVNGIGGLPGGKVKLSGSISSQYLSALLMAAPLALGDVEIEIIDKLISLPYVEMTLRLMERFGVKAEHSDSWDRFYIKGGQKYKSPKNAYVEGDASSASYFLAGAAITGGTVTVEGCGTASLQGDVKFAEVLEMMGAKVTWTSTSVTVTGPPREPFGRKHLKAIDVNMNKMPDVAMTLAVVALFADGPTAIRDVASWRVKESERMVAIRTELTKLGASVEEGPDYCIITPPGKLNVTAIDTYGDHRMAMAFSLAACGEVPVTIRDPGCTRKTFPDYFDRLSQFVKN
From the text: (§1) There are several practical considerations for accurately estimating (kcat/KM)*KI with the rapid method. […] 2) The inhibitor concentration must be adjusted so as to obtain a degree of inhibition that minimally amplifies the error in the term v0-vi in Equation 3. If inhibition is too little, v0-vi will be small, and the error in the multiplier vi×v0/(v0-vi) will be large. […] 3) Substrate concentration should be set at the approximate KM of the parental variant(s), subject to the sensitivity of the assay. High substrate concentration obscures sensitivity to the inhibitor and reduces stringency for capturing improvements in KM. Depending on the necessity for speed, there exists opportunity for customizing enzyme and inhibitor concentrations. […] The rapid method was repeated for those and obtained data that correlated better with data obtained by substrate saturation analysis. For screening purposes however, that correlation step is not necessary. Conditions can be set so that variants with a pre-determined minimal fitness level are accurately quantified.
(§2) In Table 15, parameters above the heavy line for the rapid method were obtained under standard conditions. For variants shown below the heavy line, the rapid analysis was repeated with enzyme or glyphosate concentrations adjusted as needed to generate sufficient signal within the limits for linear initial rates.

[3] = biological target: T2, Zea mays EPSPS variant Zm-H6 (868-H6) with K246G (H6-K246G) (Zea mays, UniProt O24566, A1R/A3W/A415G/A71Q/D401G/E301S/E390G/G101A/I207L/K245G/K83R/L97C/T278A/T360S/T440Q/V437R); experiment: Substrate saturation kinetic analysis with glyphosate, H6-K246G
T2 construct: 868-H6 plus K246G; E. coli BL21(DE3), Ni-NTA purified
T2 sequence (O24566 with tags, fused parts or gaps A1R/A3W/A71Q/K83R/L97C/G101A/I207L/K245G/T278A/E301S/T360S/E390G/D401G/A415G/V437R/T440Q): T1 sequence (O24566 with tags, fused parts or gaps A1R/A3W/R60Y/A71Q/K83R/L97C/G101A/I207L/T278A/E301S/T360S/E390G/D401G/A415G/V437R/T440Q) with Y61R, K246G

[4] = biological target: T3, Zea mays EPSPS variant Zm-A189T (Zea mays, UniProt O24566, A188T); experiment: Rapid two-rate method for (kcat/KM)*KI, Zm-A189T; conditions: [E] 0.07 uM, [Gly] 1000 uM
T3 sequence (O24566 with tags, fused parts or gaps A188T): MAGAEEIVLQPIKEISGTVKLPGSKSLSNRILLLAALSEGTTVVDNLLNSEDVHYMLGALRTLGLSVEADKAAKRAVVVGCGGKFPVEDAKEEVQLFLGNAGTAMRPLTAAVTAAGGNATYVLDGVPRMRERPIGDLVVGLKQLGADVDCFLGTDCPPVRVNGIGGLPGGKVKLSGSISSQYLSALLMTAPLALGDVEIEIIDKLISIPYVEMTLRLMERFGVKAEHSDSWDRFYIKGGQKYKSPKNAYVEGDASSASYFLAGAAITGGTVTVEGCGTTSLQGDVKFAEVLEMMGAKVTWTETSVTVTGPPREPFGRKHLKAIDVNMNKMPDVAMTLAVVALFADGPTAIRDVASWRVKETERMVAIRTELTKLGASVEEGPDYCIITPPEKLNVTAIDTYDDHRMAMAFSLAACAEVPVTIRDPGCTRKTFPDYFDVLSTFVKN
From the text: as §1, §2

[5] = biological target: Zea mays EPSPS variant 4R (Zea mays, UniProt O24566, A3R); experiment: EPSPS reaction rate with or without 10 uM glyphosate, 4R; conditions: pH 7; read-out: Reaction rate with 10 μM glyph, % no glyph; note: 50 µM PEP and S3P
Zea mays EPSPS variant 4R, sequence (O24566 entry or part of it A3R): as the sequence (O24566 entry or part of it P310S) above, with A4R, S311P counted along it

O=C(O)CNCP(=O)(O)O [glyphosate, N-phosphonomethylglycine]
activity at 10 µM [1]: 4.37% | (kcat/KM)*KI [2]: 1889 | Ki [3]: 284 µM | (kcat/KM)*KI ([3]; substrate saturation, H6-K246G): 2490 | (kcat/KM)*KI [4]: 431 | activity at 10 µM [5]: 7.38%
